Test results published in patent publication US20240261354A1, “METHODS FOR IMPROVING BONE QUALITY AND PROMOTING CARTILAGE DIFFERENTIATION BY CHRYSOPHYLLUM CAINITO EXTRACT AND MANUFACTURING METHOD THEREOF” (TCI CO., LTD., priority 2023, published 2024).

Test system: OP9 cells
Assay: Test of myricetin promoting osteocalcin secretion
Type: cell-based, Murine
Conditions: 0.03125 mg/mL in differentiation culture medium, 7 days; blank group taken as 100%; ELISA of supernatant
Excerpt: Experimental cell line: Murine bone marrow stromal cells (hereinafter referred to as OP9 cells) were used, and the OP9 cells were purchased from OP9 cell lines (ATCC CRL-2749™) from the American Type Culture Collection (ATCC®). Cell culture medium: It included […] (Minimum Essential Medium Alpha Medium, purchased from Gibco, product number: Cat. 12000-022), 20% of Fetal Bovine Serum (purchased from Gibco, Cat. 10437-028), and 1% of Penicillin-streptomycin (purchased from Gibco, Cat. 15240-062). Differentiation culture medium: It included 90% of DMEM (Dulbecco's modified Eagle's medium, purchased from Gibco, Cat. 12100-038) added with additional ingredients to make it include 10% of FBS (fetal bovine Serum, purchased from Gibco, 10438-026) and 1% of penicillin-streptomycin (purchased from Gibco, Cat. 15140122), 50 μM of ascorbic acid (purchased from Sigma), 10^−7 M of dexamethasome (purchased from Sigma), and 10 mM of β-glycerol (purchased from Sigma). ELISA Kit for Osteocalcin (OC): Brand: USCN; model: SEA471Mu. Flow cytometer: Purchased from BD Pharmingen Company, model: BDTM Accuri C6 Plus. […] The content of osteocalcin in the supernatant to be detected in each well was measured by the […] to promote osteocalcin secretion analysis. […]

## O=c1c(O)c(-c2cc(O)c(O)c(O)c2)oc2cc(O)cc(O)c12 [myricetin]
  relative osteocalcin secretion: 121.39%
